In patent US20220002772A1, “METHOD FOR PRODUCING ALLOLACTOSE” (priority 2019, published 2022):

What was measured:
[1] = tested on: lac promoter on the pUC19 plasmid; test: Lac promoter inducibility with DasherGFP reporter (JM109+pUC-DGFP-PtI strain); assay type: cell-based, E. coli JM109; settings: allolactose at 0.0075 mM in LB agar medium, 37° C. overnight, UV illuminator
Description: It is assumed that since blue coloration of the degradation product of X-gal by beta-galactosidase (LacZ) was used as the evaluation index in the evaluation in (6) above, allolactose was degraded by beta-galactosidase (LacZ), which is the reporter gene, and as a result the lac promoter inducibility of allolactose was attenuated under conditions with allolactose concentrations of 0.0075 to 0.015 mM.
PCR was performed by using FPB-27-441 plasmid (Cosmo Bio) as the template and primers of SEQ ID NOS: 5 and 6, to amplify a gene fragment encoding DasherGFP. Separately, PCR was performed by using a plasmid pUC19 plasmid (Takara Bio) as the template and primers of SEQ ID NOS: 7 and 8, to amplify an outside fragment of the plasmid. The PCR products were each purified by using Wizard SV Gel and PCR Clean-Up System (Promega). In-Fusion HD Cloning Kit (Takara Bio) was used to ligate the purified PCR products. E. coli JM109 was transformed with the reaction product, and cultured on LB agar medium containing 50 mg/L ampicillin at 37° C. overnight, to form colonies, to thereby obtain a transformant. A plasmid pUC19-DGFP, in which LacZα gene has been replaced with DasherGFP gene, was obtained from the obtained transformant by using Wizard Plus Miniprep System (Promega). […]

lac promoter = test: Lac promoter inducibility in pET expression system (GH1-2 protein expression, SDS-PAGE, strain EcGHH6); assay type: cell-based, E. coli Rosetta 2(DE3)pLysS; settings: liquid culture
Description: The lac promoter inducibility of allolactose was evaluated using the inducibility of pET expression system, which is commonly used for heterologous protein production, as an indicator. In the pET expression system, T7-polymerase, which is inducibly expressed from the lac promoter, highly expresses a gene downstream of the T7 promoter (e.g. a gene encoding a heterologous protein). As the heterologous protein to be produced, beta-galactosidase gene of a filamentous fungus Talaromyces cellulolyticus (hereinafter, also referred to as “gh1-2 gene”) was used.
RNA was prepared form cells of the T. cellulolyticus strain Y-94 (CBS 136886) by using RNeasy Plant Mini Kit (QIAGEN), and a full-length cDNA solution was prepared form the RNA solution by using SMARTer® RACE 5′/3′ kit. PCR was performed by using the cDNA solution as the template and primers of SEQ ID NOS: 13 and 14, to amplify a cDNA fragment of gh1-2 gene. Separately, PCR was performed by using a plasmid pET24a (Novagen) as the template and primers of SEQ ID NOS: 3 and 4, to amplify an outside fragment of the plasmid. The PCR products were each purified by using Wizard SV Gel and PCR Clean-Up System (Promega). In-Fusion HD Cloning Kit (Takara Bio) was used to ligate the purified PCR products. […]

[2] = tested on: lac promoter on the pUC19 plasmid; test: Lac promoter inducibility by Blue-White screening method (JM109+pUC19 strain, X-Gal plates); assay type: cell-based, E. coli JM109; set-up: key to Blue coloration of formed colonies of JM109 + pUC19 strain: “x (cross)” indicates no blue coloration; “Δ (triangle)” indicates unclear blue coloration; “∘ (circle)” indicates clear blue coloration
Description: The lac promoter inducibility of allolactose was evaluated by the Blue-White screening method using E. coli JM109 and pUC19 plasmid.
Competent cells of E. coli JM109 (Takara Bio) were transformed with pUC19 plasmid (Takara Bio), and cultured on LB agar medium containing 50 mg/L ampicillin at 37° C. overnight, to form colonies. The formed colonies were streaked on LB agar medium containing 50 mg/L ampicillin, and single colonies were obtained, to thereby obtain a strain JM109+pUC19. […] Beta-galactosidase activity of the strain JM109 is lost unless alpha-complementarity is exerted.
The reaction mixture containing 55.8 g/L of allolactose obtained in (4) above was subjected to heating at 95° C. for 10 minutes to inactivate the enzyme, and the supernatant was passed through a 0.22 μm pore size filter, to obtain an allolactose solution. The obtained allolactose solution was diluted according to the dilution factors listed in Table 4 and added to LB agar media, and X-Gal (Thermo Fisher Scientific) was further added, to prepare LB agar media for Blue-White screening containing various concentrations of allolactose and X-gal. X-gal is degraded by beta-galactosidase, and the degradation product thereof, 4-chloro-3-bromo-indigo, provides blue coloration.
The JM109+pUC19 strain was streaked on each LB agar medium for Blue-White screening and cultured at 37° C. overnight, and the coloration of single-isolated colonies was observed.

## OC[C@H]1O[C@@H](OC[C@H]2OC(O)[C@H](O)[C@@H](O)[C@@H]2O)[C@H](O)[C@@H](O)[C@H]1O (some centres unmarked) [allolactose]
[1]
  Fluorescent coloration of colonies (DasherGFP expression from lac promoter): fluorescent coloration of the colonies of the JM109+pUC-DGFP-PtI strain was observed
Lac promoter; allolactose concentrations below 0.1 mM
  Expression level of heterologous protein (GH1-2): decreased
Lac promoter; allolactose final concentration 0.1 mM, 13° C., 14 hours
  Expression of heterologous protein (GH1-2) compared with induction by 1 mM IPTG: almost equally
[2]; allolactose concentrations of 0.0075 to 0.015 mM
  Blue coloration of colonies (lac promoter inducibility): blue coloration was obscured
[2]; allolactose concentrations of 0.03 to 1.5 mM
  Blue coloration of colonies, i.e. induction of gene expression from the lac promoter: blue coloration of colonies was observed
[2]; final concentration of allolactose in plate media 0.0075 mM (dilution factor 21736)
  Blue coloration of formed colonies of JM109 + pUC19 strain: Δ
[2]; final concentration of allolactose in plate media 0.015 mM (dilution factor 10868)
  Blue coloration of formed colonies of JM109 + pUC19 strain: Δ
[2]; final concentration of allolactose in plate media 0.03 mM (dilution factor 5434)
  Blue coloration of formed colonies of JM109 + pUC19 strain: ∘
[2]; final concentration of allolactose in plate media 0.075 mM (dilution factor 2174)
  Blue coloration of formed colonies of JM109 + pUC19 strain: ∘
[2]; final concentration of allolactose in plate media 0.15 mM (dilution factor 1087)
  Blue coloration of formed colonies of JM109 + pUC19 strain: ∘
[2]; final concentration of allolactose in plate media 0.3 mM (dilution factor 543)
  Blue coloration of formed colonies of JM109 + pUC19 strain: ∘
[2]; final concentration of allolactose in plate media 1.5 mM (dilution factor 109)
  Blue coloration of formed colonies of JM109 + pUC19 strain: ∘
[2]; final concentration of allolactose in plate media 3 mM (dilution factor 54)
  Blue coloration of formed colonies of JM109 + pUC19 strain: Δ
[2]; final concentration of allolactose in plate media 15 mM (dilution factor 11)
  Blue coloration of formed colonies of JM109 + pUC19 strain: x
